Laboratory results published in article PMC6792352, “Limited Chemical Structural Diversity Found to Modulate Thyroid Hormone Receptor in the Tox21 Chemical Library” (Environmental Health Perspectives, 2019).
Counter-ions that a name gives are not always drawn.

Experiment: in vitro
Settings: rat, gh3-tre-luc cells

SMILES	CC50 at 24 h (AC50 (uM) modified / 1000) [µM]	CC50 at 24 h (AC50 (uM) modified / 1000, Tox21_110001=Tox21_111641, viability, 1 nM T3 present, 24 h) [µM]
Oc1cc(O)c(Cl)cn1 [Gimeracil]	> 50	
C#CCOc1ccc2c(C)cc(=O)oc2c1 [Giparmen]	> 50	
O=C(OCC(O)CO)c1ccccc1Nc1ccnc2cc(Cl)ccc12 (stereo not drawn) [Glafenine hydrochloride]	> 20	
CCC1=C(C)CN(C(=O)NCCc2ccc(S(=O)(=O)NC(=O)N[C@H]3CC[C@H](C)CC3)cc2)C1=O [Glimepiride]	> 50	
COc1ccc2c(c1)C(=O)N(CCc1ccc(S(=O)(=O)NC(=O)NC3CCCCC3)cc1)C(=O)C2(C)C [Gliquidone]	> 20	
Cc1cc(C(=O)NCCc2ccc(S(=O)(=O)NC(=O)NN3CCCCCC3)cc2)no1 [Glisoxepide]	> 50	
O=C1O[C@H](CO)[C@@H](O)[C@H](O)[C@H]1O [Gluconolactone]	> 90	
N[C@H]1C(O)O[C@H](CO)[C@@H](O)[C@@H]1O (stereo partly drawn) [Glucosamine hydrochloride]	> 50	
NC(=O)[C@H]1O[C@@H](O)[C@H](O)[C@@H](O)[C@@H]1O [Glucuronamide]	> 50	
O=CCCCC=O [Glutaraldehyde]	> 90	
O=C1CCCC(=O)O1 [Glutaric anhydride]	> 90	
N[C@@H](CCC(=O)N[C@@H](CS)C(=O)NCC(=O)O)C(=O)O [Glutathione]	> 50	
CCC1(c2ccccc2)CCC(=O)NC1=O (stereo not drawn) [Glutethimide]		> 50
COc1ccc(Cl)cc1C(=O)NCCc1ccc(S(=O)(=O)NC(=O)NC2CCCCC2)cc1 [Glybenclamide]	> 90	
CC(C)(C)c1nnc(NS(=O)(=O)c2ccccc2)s1 [Glybuzole]	> 50	
C=CCOCC(O)CO (stereo not drawn) [Glycerol 1-allylether]	> 90	
CCCCCCCCCCCCCCCCCC(=O)OCC(O)CO (stereo not drawn) [Glycerol 1-monostearate]	> 50	
OCC(O)CO [Glycerol]	> 90	

SMILES	CC50 at 24 h (AC50 (uM) modified / 1000) [µM]	CC50 at 24 h (AC50 (uM) modified / 1000, Tox21_110001=Tox21_111641, viability, 1 nM T3 present, 24 h) [µM]
CCCCCCCC(=O)OCC(O)CO (stereo not drawn) [Glyceryl monooctanoate]	> 90	
CCCCCCCC/C=C\CCCCCCCC(=O)OCC(O)CO (stereo not drawn) [Glyceryl monooleate]	> 90	
CCCCCC[C@@H](O)C/C=C\CCCCCCCC(=O)OCC(O)CO (stereo partly drawn) [Glyceryl monoricinoleate]	> 90	
OCC1CO1 (stereo not drawn) [Glycidol]	> 90	
C=C(C)C(=O)OCC1CO1 (stereo not drawn) [Glycidyl methacrylate]	> 90	
C[N+](C)(C)CC1CO1 (stereo not drawn) [Glycidyl trimethylammonium chloride]	> 90	
NCC(=O)O [Glycine]	> 50	
O=C(NN1CCCC1)NS(=O)(=O)c1ccc(Cl)cc1 [Glyclopyramide]	> 50	
O=S1OCCO1 [Glycol sulfite]	> 100	
O=C(O)CO [Glycolic acid]	> 90	
O=C1NC2NC(=O)NC2N1 (stereo not drawn) [Glycoluril]	> 90	
Cc1ccc(S(=O)(=O)NC(=O)NC2CCCCC2)cc1 [Glycyclamide]	> 50	
CC1(C)C2CC[C@]3(C)[C@H](C(=O)C=C4[C@@H]5C[C@@](C)(C(=O)O)CC[C@]5(C)CC[C@]43C)[C@@]2(C)CC[C@@H]1O[C@H]1O[C@H](C(=O)O)[C@@H](O)[C@H](O)[C@H]1O[C@@H]1O[C@H](C(=O)O)[C@@H](O)[C@H](O)[C@H]1O (stereo partly drawn) [Glycyrrhizic acid, monosodium salt]	> 50	
Cc1ccc(S(=O)(=O)NC(=O)NC2CCCCCCC2)cc1 [Glyoctamide]	> 50	
O=CC=O [Glyoxal]	> 90	
ON=CC=NO [Glyoxime]	> 90	
COc1ccc(S(=O)(=O)Nc2nnc(CC(C)C)s2)cc1 [Glysobuzole]	> 50	
CC(C)C[C@H](NC(=O)CNC(=O)[C@H](Cc1ccc(O)cc1)NC(=O)[C@H](CO)NC(=O)[C@H](Cc1c[nH]c2ccccc12)NC(=O)[C@H](Cc1cnc[nH]1)NC(=O)[C@@H]1CCC(=O)N1)C(=O)N[C@@H](CCCNC(=N)N)C(=O)N1CCC[C@H]1C(=O)NCC(N)=O [Gonadorelin hydrochloride]	> 50	
